Like-named read-outs stand apart in the source and are kept apart here.
Tests used:
[1] = Serum concentration in the choroidal neovascularization experiment; format: in vivo; settings: choroidal neovascularization model, Alzet osmotic pump
[2] = cited from earlier work; for max. plasma concentration: in vivo
[3] = tested on: cancer cell lines; assay: Proliferation of cancer cell lines; format: cell-based
[4] = tested on: choroidal neovascularization; assay: Choroidal neovascularization model with Alzet osmotic pump; format: in vivo; settings: versus vector (vehicle) alone
[5] = tested on: angiogenin; assay: Angiogenin ELISA on supernatants of ARPE-19 cells under hypoxia; format: cell-based; settings: Homo sapiens, ARPE-19, hypoxia 24 hours, read-out: IC50 angiogenin expression
Protocol: (§1) ARPE-19 was cultured in DMEM/F-12 medium supplemented with 10% heat-inactivated FBS, penicillin (100 U/mL), and streptomycin (100 ug/mL). Cells were grown in incubator with humidified atmosphere containing 5% CO2 at 37° C. To induce hypoxia conditions, cells are placed in a Billups-Rothenberg modular incubator chamber and flushed with artificial atmosphere gas mixture (5% carbon dioxide, 1% oxygen, and balance nitrogen). The hypoxia chamber was then placed in a 37° C. incubator.
(§2) APRE-19 cells were plated in two 96-well plates at a confluence of 80% and cultured overnight. The next day, a series dilution of BNC4 (100, 50, 25, 12.5, 6.25, 3.13, 1.56, 0.78, 0 nM) was added into cultures. […] Supernatants were collected for ELISAs and cells were saved for MTS assay (MTS assay readouts was used in normalizing cell numbers). […] Affection curves (BNC4 on secretion of angiogenesis proteins) and their IC50s were generated by plotting the average normalized absorbance (450 nm minus 540nm) for each treatment on Y axis versus the corresponding BNC4 concentrations on X axis using software XLfit 4.1.
(§3) ELISAs were then performed on the APRE-19 cells treated with BNC4 and incubated under normal or hypoxia conditions as described above. […] Supernatants were collected for ELISAs and cells were saved for MTS assay (MTS assay readouts was used in normalizing cell numbers). […]

[6] = tested on: VEGF; assay: VEGF ELISA on supernatants of ARPE-19 cells under hypoxia; format: cell-based; settings: Homo sapiens, ARPE-19, hypoxia 24 hours, read-out: IC50 VEGF expression
Protocol: as §1, §2, §3

[7] = tested on: HIF-1α; assay: HIF-1α Western blot in ARPE-19 cells under hypoxia; format: cell-based, human
Protocol: Samples were fractionated on 3-8% Tris-Acetate gel (Invitrogen NUPAGE system) by sodium dodecyl sulfate (SDS)-polyacrylamide gel electropherosis and transferred onto nitrocellulose membrane. […] Anti-Beta-actin monoclonal antibody (Abcam, ab6276-100) was used at a 1:5000 dilution with a 30-minute incubation at room temperature.

[8] = tested on: TIMP-1; assay: TIMP-1 ELISA on supernatants of ARPE-19 cells under hypoxia; format: cell-based; settings: Homo sapiens, ARPE-19, hypoxia 24 hours, read-out: IC50 TIMP-1 expression
Protocol: as §1, §2, §3

| SMILES | serum concentration [1] | max. plasma concentration [2] | decrease of the concentration effective for inhibiting proliferation of cancer cells by combination ([3]; combination with steroid signal modulator (Casodex)) | area of choroidal neovascularization [4] | plasma half-life ([2]; human, according to the literature) | decrease of the concentration effective for inhibiting proliferation of cancer cells by combination [3] | IC50 [5] | IC50 [6] | inhibition of hypoxia-mediated HIF-1α induction ([7]; ARPE-19 cells, hypoxia, western blot (FIG. 1)) | potency relative to BNC1 in inhibiting HIF-1α expression ([7]; human retinal pigment epithelial cells) | IC50 [8] |
| --- | --- | --- | --- | --- | --- | --- | --- | --- | --- | --- | --- |
| C[C@@H]1O[C@@H](O[C@H]2C[C@@H](O)[C@]3(CO)[C@H]4[C@H](O)C[C@]5(C)[C@@H](C6=CC(=O)OC6)CC[C@]5(O)[C@@H]4CC[C@]3(O)C2)[C@H](O)[C@H](O)[C@H]1O [BNC1, ouabain] | 0.02 µg/mL | about 0.03 μg/mL | 5 fold | reduced the area of choroidal neovascularization | – | – | – | – | – | – | – |
| C[C@@H]1O[C@@H](O[C@@H]2C=C3CC[C@@H]4[C@H](CC[C@]5(C)[C@@H](c6ccc(=O)oc6)CC[C@]45O)[C@@]3(C)CC2)[C@H](O)[C@H](O)[C@H]1O [BNC4, proscillaridin] | 0.06 µg/mL | about 0.1 μg/mL | – | reduced the area of choroidal neovascularization | about 40 hours | 5 fold | 0.0045 µM | 0.0325 µM | inhibit hypoxia-mediated HIF-1α induction | about 10 times | 0.0129 µM |

Reference: patent US20110076278A1 (priority 2005, published 2011)
